Source: PMC7306898, “Concentration-Dependent Activity of Hydromethylthionine on Clinical Decline and Brain Atrophy in a Randomized Controlled Trial in Behavioral Variant Frontotemporal Dementia” (Journal of Alzheimer's Disease, 2020)

Assays:
Format in all cases: in vivo, human
[1] = test system: bvFTD patients; assay: Functional Activities Questionnaire (FAQ), 52-week Phase III trial
Description: The study was designed as a 52-week Phase III, randomized, controlled, double-blind, parallel-group trial conducted between May 2013 and February 2016 at 70 sites in Canada, United States, Australia, Asia, and Europe. Eligible patients had to be younger than 80 years of age with a diagnosis of bvFTD according to criteria revised by the International bvFTD Criteria Consortium [[1, 50]], with Mini-Mental Status Examination (MMSE) score greater than or equal to 20 at screening. In order to limit inclusion of bvFTD phenocopy cases, there was an additional requirement that patients had to meet the criterion of having definite brain atrophy in frontal and/or temporal lobes scoring 2 or more on a scale previously developed by Kipps et al.. Concomitant use of acetylcholinesterase inhibitors (AChEIs) or memantine (or both) was permitted provided this was at a stable dose for at least 18 weeks before randomization to minimize any potential early symptomatic effects of these treatments. Concomitant use of antidepressant, antipsychotic (except clozapine or olanzapine), and sedative medications was also permitted at stable doses where clinically feasible. Each patient had one or more study partners participate with them in the trial as informants. […] A detailed list of inclusion and exclusion criteria is in the protocol provided in the Supplementary Material. […]
The two doses were provided in identical blister packages as visually identical oral tablets to be taken for up to 52 weeks. […] Other outcomes included: Modified Alzheimer’s Disease Cooperative Study – Clinical Global Impression of Change (Modified-CGIC) determined by a third independent rater; Frontotemporal Dementia Rating Scale (FRS); MMSE (from MMSE items incorporated into ACE-R); Addenbrookes Cognitive Examination – III (a revised version of ACE-R which excludes MMSE items subject to copyright restrictions); change in brain volume measured by MRI in frontal and temporal lobes (FTV) and lateral ventricles (LVV); and the effect of hydromethylthionine in patients with known genetic mutations associated with bvFTD. […]

[2] = test system: bvFTD patients; assay: MMSE, 52-week Phase III trial
Description: (§1) The two doses were provided in identical blister packages as visually identical oral tablets to be taken for up to 52 weeks. The primary outcome was the Addenbrookes Cognitive Examination – Revised (ACE-R). The Functional Activities Questionnaire (FAQ) and reduction in progression of whole brain atrophy were alternative co-primary outcomes. Other outcomes included: Modified Alzheimer’s Disease Cooperative Study – Clinical Global Impression of Change (Modified-CGIC) determined by a third independent rater; Frontotemporal Dementia Rating Scale (FRS); MMSE (from MMSE items incorporated into ACE-R); Addenbrookes Cognitive Examination – III (a revised version of ACE-R which excludes MMSE items subject to copyright restrictions); change in brain volume measured by MRI in frontal and temporal lobes (FTV) and lateral ventricles (LVV); and the effect of hydromethylthionine in patients with known genetic mutations associated with bvFTD. Blood was collected prospectively for the purpose of population PK analyses.
The primary analyses were specified as a mixed model, repeated-measures analysis with an unstructured covariance matrix and no imputation for missing data. […]

[3] = test system: bvFTD patients; assay: Modified-CGIC, 52-week Phase III trial
Description: as §1
The primary analyses were specified as a mixed model, repeated-measures analysis with an unstructured covariance matrix and no imputation for missing data. The model included visit (three levels corresponding to assessments at weeks 16, 32, and 52), treatment group (two levels, 4 mg or 100 mg twice a day), a visit by treatment group interaction term, use of AD-labelled medications (two levels, using or not using), geographic region (three levels: North America, Asia/Australia, Europe), and baseline value of the variable analyzed. The individual comparisons were implemented through contrasts. The Bonferroni-Holm correction was used to take account of multiplicity arising from alternative co-primary outcomes (FAQ and whole brain atrophy). We used the same method for all secondary analyses in predefined gated sequences such that no further adjustment of alpha (0.05) was needed.
The concentration-response analyses used a Mixed-effect Model Repeat Measurement (MMRM) with per-subject correction and an unstructured covariance matrix according to the following formula: […]

[4] = 8 mg/day, plasma levels above vs below […] threshold
[5] = 200 mg/day (n = 104) vs 8 mg/day, 52 weeks

CN(C)c1ccc2c(c1)Sc1cc(N(C)C)ccc1N2 [hydromethylthionine, leuco-methylthioninium bis(hydromethanesulphonate)]
FAQ: Decline±SEM for LMTM 8 mg/day group ([1]; 8 mg/day (n = 110), modeled change from baseline at 52 weeks, MITT): 5.51±0.55
reduction in decline on the FAQ scale [1, 4]: 46%
FAQ: Difference±SEM from LMTM 8 mg/day for 200 mg/day ([1]; 200 mg/day (n = 104) vs 8 mg/day, 52 weeks, MITT): –0.39±0.84
MMSE: Decline±SEM for LMTM 8 mg/day group ([2]; 8 mg/day (n = 110), modeled change from baseline at 52 weeks): –3.41±0.53
MMSE: Difference±SEM from LMTM 8 mg/day for 200 mg/day [2, 5]: –0.12±0.80
CGIC: Decline±SEM for LMTM 8 mg/day group ([3]; 8 mg/day (n = 110), 52 weeks): –1.05±0.11
reduction in decline, Modified-CGIC [3, 4]: 48%
CGIC: Difference±SEM from LMTM 8 mg/day for 200 mg/day [3, 5]: –0.04±0.16
